Results on 18 molecules are retold here after patent US12128028B2, “Heterocyclic sulfonamide derivatives and pharmaceutical uses thereof” (METRION BIOSCIENCES LIMITED, priority 2018, dated 2024).

Sequence of human Kv1.3 (P22001 whole entry): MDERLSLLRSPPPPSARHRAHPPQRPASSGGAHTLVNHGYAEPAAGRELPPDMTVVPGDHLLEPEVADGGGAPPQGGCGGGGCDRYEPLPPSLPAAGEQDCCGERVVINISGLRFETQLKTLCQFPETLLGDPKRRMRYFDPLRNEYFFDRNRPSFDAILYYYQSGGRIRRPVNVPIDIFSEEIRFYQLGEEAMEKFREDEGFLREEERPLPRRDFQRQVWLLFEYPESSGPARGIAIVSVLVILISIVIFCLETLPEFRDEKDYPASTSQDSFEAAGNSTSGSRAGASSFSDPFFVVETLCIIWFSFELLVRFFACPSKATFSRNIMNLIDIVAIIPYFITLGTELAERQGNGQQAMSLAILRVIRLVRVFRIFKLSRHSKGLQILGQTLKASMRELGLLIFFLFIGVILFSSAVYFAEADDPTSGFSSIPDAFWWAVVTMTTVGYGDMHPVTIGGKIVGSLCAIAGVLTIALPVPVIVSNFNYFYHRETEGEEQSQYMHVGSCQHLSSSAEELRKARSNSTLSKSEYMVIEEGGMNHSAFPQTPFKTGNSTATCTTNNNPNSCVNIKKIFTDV

The assay deals with human Kv1.3 (Homo sapiens (Human), UniProt P22001). Nature of the assay: Kv1.3 potency evaluation, automated patch clamp electrophysiology (QPatch HT) in CHO-Kv1.3 cells. The following applies: whole-cell QPatch HT, % inhibition of charge, step to +30 mV, four concentrations, N≥3 cells, read-out: hKv1.3 IC50. It counts as cell-based. The gist of the method:
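Automated whole-cell patch clamp in CHO cells stably expressing human Kv1.3; steps from −80 to +30 mV (500 ms) at 0.067 Hz. Four cumulative concentrations after vehicle (0.1-0.3% DMSO); charge inhibition vs vehicle fitted by four-parameter logistic for IC50, N≥3 cells.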
Consider `CC1(C)N=C(C23CC(N(Cc4ccc(Cl)c(F)c4)S(=O)(=O)c4ccccc4)(C2)C3)N[C@H]1C(=O)N1CCC2(CCC2)C1` (mixture of isomers) [Example 109], for which the IC50 (in general, the concentration at which inhibition is half-maximal) worked out at 71 nM.

Regarding `CC1(C)N=C(C23CC(N(Cc4ccc(Cl)cc4)S(=O)(=O)c4cccnc4)(C2)C3)N[C@H]1C(=O)NCCC(F)(F)F` (mixture of isomers) [Example 110], the IC50 worked out at 72 nM. For the molecule `CC(F)(F)CCS(=O)(=O)N(Cc1ccc(Cl)c(F)c1)C12CC(C3=NC(C)(C)[C@H](C(=O)NCCC(F)(F)F)N3)(C1)C2` (mixture of isomers) [Example 111], the IC50 amounted to 72 nM. `CC1(C)N=C(C23CC(N(Cc4ccc(Cl)cc4)S(=O)(=O)c4ccccc4)(C2)C3)N[C@H]1C(=O)NCC(F)(F)C(F)(F)F` (mixture of isomers) [Example 112]: the IC50 was 72 nM.

As for `CN(CC1CC(F)(F)C1)C(=O)[C@@H]1NC(C23CC(N(Cc4ccc(Cl)c(Cl)c4)S(=O)(=O)c4ccccc4)(C2)C3)=NC1(C)C` (mixture of isomers) [Example 113], the IC50 is 72 nM. For the molecule `CC1(C)N=C(C23CC(N(Cc4ccc(Cl)c(F)c4)S(=O)(=O)c4ccccc4)(C2)C3)N[C@H]1C(=O)NC1CC(F)(F)C1` (mixture of isomers) [Example 114], the IC50 worked out at 73 nM. With `CC1(C)N=C(C23CC(N(Cc4ccc(Cl)c(Cl)c4)S(=O)(=O)c4ccccc4)(C2)C3)N[C@H]1C(=O)NC1CC(F)(F)C1` (mixture of isomers) [Example 115] the figure was 73 nM; with `CC1(C)N=C(C23CC(N(Cc4ccc(Cl)c(Cl)c4)S(=O)(=O)c4ccccc4)(C2)C3)N[C@H]1C(=O)N1CCC2(C1)CC(F)(F)C2` (mixture of isomers) [Example 116], 73 nM; with `CN(CCC(F)(F)F)C(=O)[C@@H]1NC(C23CC(N(Cc4ccc(Cl)c(Cl)c4)S(=O)(=O)CCC(C)(F)F)(C2)C3)=NC1(C)C` (mixture of isomers) [Example 117], 73 nM. With `CC1(C)N=C(C23CC(N(Cc4ccc(Cl)c(F)c4)S(=O)(=O)c4ccccc4)(C2)C3)N[C@H]1C(=O)NC1(CC(F)(F)F)CC1` (mixture of isomers) [Example 118], the IC50 came to 74 nM.

For the molecule `CC1(C)N=C(C23CC(N(Cc4ccc(Cl)c(F)c4)S(=O)(=O)c4ccccc4)(C2)C3)N[C@H]1C(=O)N(CCC(F)(F)F)C1CC1` (mixture of isomers) [Example 119], the IC50 is 74 nM. As to `CN(C(=O)[C@@H]1NC(C23CC(N(Cc4ccc(Cl)c(Cl)c4)S(=O)(=O)c4ccccc4)(C2)C3)=NC1(C)C)C1CC(C(F)F)C1` (mixture of isomers) [Example 120], the IC50 was 74 nM.

On to `CC1(C)N=C(C23CC(N(Cc4ccc(Cl)cc4)S(=O)(=O)C4CCCC4)(C2)C3)N[C@H]1C(=O)NCCC(F)(F)F` (mixture of isomers) [Example 121], for which the IC50 is 75 nM. The figure for `CC1(C)N=C(C23CC(N(Cc4ccc(C(F)F)cc4)S(=O)(=O)c4ccccc4)(C2)C3)N[C@H]1C(=O)NCCC(F)(F)F` (mixture of isomers) [Example 122] is 75 nM; for `CC1(C)N=C(C23CC(N(Cc4ccc(Cl)c(F)c4)S(=O)(=O)c4ccccc4)(C2)C3)N[C@H]1C(=O)N1CCC(F)(F)CC1` (mixture of isomers) [Example 123] it is 75 nM; for `CC1(C)N=C(C23CC(N(Cc4ccc(Cl)c(F)c4)S(=O)(=O)c4ccccc4)(C2)C3)N[C@H]1C(=O)N1CCC(F)CC1` (mixture of isomers) [Example 124] it is 75 nM. With `CC1(C)N=C(C23CC(N(Cc4ccc(Cl)c(F)c4)S(=O)(=O)c4ccccc4)(C2)C3)N[C@H]1C(=O)N1CC[C@@H](C(F)(F)F)C1` (mixture of isomers) [Example 125] the figure was 75 nM; with `CC1(C)N=C(C23CC(N(Cc4ccc(Cl)c(F)c4)S(=O)(=O)c4ccccc4)(C2)C3)N[C@H]1C(=O)NCC(F)(F)C(F)(F)F` (mixture of isomers) [Example 126], 76 nM.
